Measured values from patent US10562912B2 (C&C Research Laboratories, priority 2013, dated 2020).

How the values were obtained:
Format in all cases: cell-based
[1] = tested on: LNCaP; test: Cell growth inhibition assay, prostate cancer cell line LNCaP (medium with 10 ng/mL IL-6); details: Homo sapiens, medium supplemented with 10 ng/mL of IL-6, 10,000 cells/well
[2] = target: T1, STAT3 (Homo sapiens, UniProt P40763); test: STAT3 reporter gene assay (luciferase), LNCaP stable cell line (pSTAT3-TA-luc), IL-6 stimulation
T1 construct: plasmid pSTAT3-TA-luc), which contains a stably operating STAT3 promoter; endogenous in cells
T1 sequence (P40763 whole entry): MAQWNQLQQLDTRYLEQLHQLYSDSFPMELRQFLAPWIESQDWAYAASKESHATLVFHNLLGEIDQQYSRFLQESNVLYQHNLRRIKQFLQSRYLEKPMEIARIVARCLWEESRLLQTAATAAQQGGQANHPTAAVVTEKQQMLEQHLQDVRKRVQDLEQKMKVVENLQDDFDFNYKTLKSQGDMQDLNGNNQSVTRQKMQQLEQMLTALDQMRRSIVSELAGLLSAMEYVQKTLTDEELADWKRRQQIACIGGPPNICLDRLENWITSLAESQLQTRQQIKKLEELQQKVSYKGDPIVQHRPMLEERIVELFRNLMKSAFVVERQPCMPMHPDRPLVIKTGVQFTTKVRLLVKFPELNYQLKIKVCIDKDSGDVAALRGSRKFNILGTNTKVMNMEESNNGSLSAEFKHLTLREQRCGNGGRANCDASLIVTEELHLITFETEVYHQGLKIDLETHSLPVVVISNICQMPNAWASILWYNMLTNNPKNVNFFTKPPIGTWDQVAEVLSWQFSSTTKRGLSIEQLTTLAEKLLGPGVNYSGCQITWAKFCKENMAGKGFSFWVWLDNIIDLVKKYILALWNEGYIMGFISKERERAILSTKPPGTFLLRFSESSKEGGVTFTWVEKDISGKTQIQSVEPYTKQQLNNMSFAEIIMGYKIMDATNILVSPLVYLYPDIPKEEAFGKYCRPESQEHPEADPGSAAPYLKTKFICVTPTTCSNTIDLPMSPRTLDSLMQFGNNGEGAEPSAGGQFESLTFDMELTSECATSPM
How it was run: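 LNCaP cells stably carrying pSTAT3-TA-luc, in RPMI1640 with 3% DCC-FBS, were treated with compound and then stimulated with 10 ng/mL IL-6 for 24–48 h at 37 °C. Luciferase activity was measured in lysates. A parallel plate measured viability by CellTiter-Glo, with stimulated 0.1% DMSO wells as the positive control.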

[3] = tested on: AGS; test: Cell growth inhibition assay, stomach cancer cell line AGS; details: Homo sapiens; AGS stomach cancer cell line, 3,000 cells/well
Procedure: The inhibitory effects of the compounds of the present invention against the growth of cancer cells were evaluated as shown below. The cancer cell lines including stomach cancer cell line (AGS), breast cancer cell lines (MDA-MB-231, MDA-MB-468, and BT-549), prostate cancer cell lines (LNCaP and DU-145), colon cancer cell line (HCT116), ovarian cancer cell line (SW626), liver cancer cell line (Hep3B), kidney cancer cell line (ACHN), lung cancer cell line (NCI-H23) and blood cancer cell lines (HEL92.1.7 and U266) were cultured under the protocol provided by each supplier. A medium supplemented with 10 ng/mL of IL-6 was used for LNCaP, a prostate cancer cell line, when treated with a drug. Each type of cells to be used in experiments were sub-cultured in a 96-well plate by counting the exact number of cells using Tali™ Image-based Cytometer (Life Technologies). In a 96-well plate, AGS, HCT116, and DU-145 were employed with 3,000 cells/well; NCI-H23, SW626, Hep3B, ACHN, BT-549, MDA-MB-231, HEL92.1.7, and U266 were employed with 5,000 cells/well; and LNCaP and MDA-MB-468 were employed with 10,000 cells/well. The cells were treated with the compounds listed in Examples which were diluted in various concentrations. Upon completion of the compounds treatment, AGS, HCT116, SW626, DU145, NCI-H23, Hep3B, ACHN, BT-549, LNCaP, HEL92.1.7, and U266 cells were cultured at 37° C. under 5% CO2 for from 72 to 96 hours, and MDA-MB-231 and MDA-MB-468 cells were cultured at 37° C. in air for from 72 to 96 hours. Subsequently, the cells were observed under microscope and drug precipitation and particular findings were investigated and recorded. And then, the 96-well plate was placed at room temperature for 30 minutes, added with 20 μL/well of CellTiter-Glo solution (Cat No. G7573, Promega) and shaken for 10 minutes, followed by being subjected to the measurement using PHERAstar™ microplate reader (BMG LABTECH) according to the supplier's general luminometer protocol. Wells where only culture liquid added without cell plating were used as a negative control, whereas wells where culture liquid containing 0.1% DMSO instead of the compounds listed in Examples were used as a positive control.

| SMILES | IC50 [1] | IC50 [2] | IC50 [3] |
| --- | --- | --- | --- |
| COc1ccc(C(F)(F)F)c(-c2cccc(NC(=O)c3cc4ccc([N+](=O)[O-])cc4[nH]3)c2)c1 [Example 282, N-(5′-methoxy-2′-(trifluoromethyl)-[1,1′-biphenyl]-3-yl)-6-nitro-1H-indole-2-carboxamide] | > 10 µM | > 10 µM | 23.8 µM |
| CS(=O)(=O)Nc1ccc2cc(C(=O)Nc3cccc(-c4ccc(S(N)(=O)=O)cc4C(F)(F)F)c3)[nH]c2c1 [Example 283, 6-(methylsulfonamido)-N-(4′-sulfamoyl-2′-(trifluoromethyl)-[1,1′-biphenyl]-3-yl)-1H-indole-2-carboxamide] | > 10 µM | 7.4 µM | 18.2 µM |
| CS(=O)(=O)Nc1ccc2cc(C(=O)Nc3cccc(-c4ccc(C#N)cc4C(F)(F)F)c3)[nH]c2c1 [Example 284, N-(4′-cyano-2′-(trifluoromethyl)-[1,1′-biphenyl]-3-yl)-6-(methylsulfonamido)-1H-indole-2-carboxamide] | 3.1 µM | 1.9 µM | 11.3 µM |
| CS(=O)(=O)Nc1ccc2cc(C(=O)Nc3cccc(-c4ccc([N+](=O)[O-])cc4C(F)(F)F)c3)[nH]c2c1 [Example 285, 6-(methylsulfonamido)-N-(4′-nitro-2′-(trifluoromethyl)-[1,1′-biphenyl]-3-yl)-1H-indole-2-carboxamide] | 3.3 µM | 2.5 µM | 13.6 µM |
| COC(=O)c1ccc(C(F)(F)F)c(-c2cccc(NC(=O)c3cc4ccc([N+](=O)[O-])cc4[nH]3)c2)c1 [Example 286, methyl 3′-(6-nitro-1H-indole-2-carboxamido)-6-(trifluoromethyl)-[1,1′-biphenyl]-3-carboxylate] | > 10 µM | > 10 µM | 10.2 µM |
| COC(=O)c1ccc(C(F)(F)F)c(-c2cccc(NC(=O)c3cc4ccc(NS(C)(=O)=O)cc4[nH]3)c2)c1 [Example 287, methyl 3′-(6-(methylsulfonamido)-1H-indole-2-carboxamido)-6-(trifluoromethyl)-[1,1′-biphenyl]-3-carboxylate] | > 10 µM | > 10 µM | 23.6 µM |
| COC(=O)c1cc(-c2cccc(NC(=O)c3cc4ccc([N+](=O)[O-])cc4[nH]3)c2)c(C(F)(F)F)cc1OC [Example 288, methyl 4-methoxy-3′-(6-nitro-1H-indole-2-carboxamido)-6-(trifluoromethyl)-[1,1′-biphenyl]-3-carboxylate] | > 10 µM | > 10 µM | > 50 µM |
| COC(=O)c1cc(-c2cccc(NC(=O)c3cc4ccc(NS(C)(=O)=O)cc4[nH]3)c2)c(C(F)(F)F)cc1OC [Example 289, methyl 4-methoxy-3′-(6-(methylsulfonamido)-1H-indole-2-carboxamido)-6-(trifluoromethyl)-[1,1′-biphenyl]-3-carboxylate] | > 10 µM | > 10 µM | 32 µM |
| CS(=O)(=O)Nc1ccc2cc(C(=O)Nc3cccc(-c4ncccc4C(F)(F)F)c3)[nH]c2c1 [Example 290, 6-(methylsulfonamido)-N-(3-(3-(trifluoromethyl)pyridin-2-yl)phenyl)-1H-indole-2-carboxamide] | > 10 µM | 7 µM | 20.9 µM |
| CS(=O)(=O)Nc1ccc2cc(C(=O)Nc3cccc(-c4cnccc4C(F)(F)F)c3)[nH]c2c1 [Example 291, 6-(methylsulfonamido)-N-(3-(4-(trifluoromethyl)pyridin-3-yl)phenyl)-1H-indole-2-carboxamide] | 8.1 µM | 3.2 µM | 13.9 µM |
| O=C(Nc1cccc(-c2cccnc2C(F)(F)F)c1)c1cc2ccc([N+](=O)[O-])cc2[nH]1 [Example 292, 6-nitro-N-(3-(2-(trifluoromethyl)pyridin-3-yl)phenyl)-1H-indole-2-carboxamide] | > 10 µM | > 10 µM | 43.7 µM |
